“Also recorded” adds a separate entry of the source.
How the values were obtained:
[1] = tested on: endogenous IKBKAP gene with the IVS20+6T→C mutation in cells of FD patients; experiment: RT-PCR of spliced products of the endogenous IKBKAP gene in cells of FD patients; format: cell-based, human; details: cultured 60 hours
Experimental: The cells of FD patients were obtained from Coriell Institute. The endogenous IKBKAP gene in the cells of FD patients had the IVS20^+6T→C mutation. Compound 1 and the kinetin were added at a concentration of 2 μM or 50 μM to a culture medium of the cells of FD patients. The cells were cultured for 60 hours, collected, and then subjected to RT-PCR. As the control, untreated cells and DMSO (solvent) treated cells were used. FIG. 4 illustrates the results.

[2] = tested on: pre-mRNA of the mutant human IKBKAP gene having the IVS20+6T→C mutation; experiment: two-color fluorescent FD-type splicing reporter construct in HeLa cells (GFP/RFP); format: cell-based; details: HeLa cells transfected with FD-type reporter construct
Excerpt: A reporter construct (FD type) as illustrated in FIG. 1B was produced by utilizing exons 19 to 21 of a mutant human IKBKAP gene having the IVS20^+6T→C mutation as illustrated in FIG. 1A. In the reporter construct, a gene for a GST protein, exons 19 to 21 of a mutant human IKBKAP gene, a red fluorescent protein (RFP), and a green fluorescent protein (GFP) were connected in this order downstream of a CAG promoter. When this reporter construct underwent wild-type splicing, the gene for a GST protein and exons 19 to 21 of the mutant human IKBKAP gene were joined to form an mRNA of 3n+1 bases in length, and a stop codon (UAA) of the RFP gene was out-of-frame, so that the GFP gene was translated in the frame to express a green fluorescent protein. On the other hand, when this reporter construct underwent abnormal splicing, the gene for a GST protein and exons 19 to 21 of the mutant human IKBKAP gene were joined to form an mRNA of 3n bases in length, so that the RFP gene and the stop codon (UAA) of the RFP gene were translated in the frame to express a red fluorescent protein. The FD-type reporter construct was used to screen a compound capable of inhibiting abnormal splicing of a pre-mRNA that was transcribed from the construct. Specifically, the FD-type reporter construct was transfected into HeLa cells, and then a test compound was brought into contact with the HeLa cells and cultured. Next, fluorescence observation was performed after a predetermined time, and the fluorescence intensity ratio (GFP/RFP) of GFP (normal splicing products) to RFP (abnormal splicing products) was compared to the control (e.g., a solvent alone or kinetin (reference compound 1)), so that the compound with higher fluorescence intensity was determined. […] The FD-type reporter construct was transfected into HeLa cells, and then the compound 1 was brought into contact with the HeLa cells and cultured (compound concentration: […], and 50.0 μM). Next, fluorescence observation was performed each after 24 hours and 48 hours, and the fluorescence intensity ratio (GFP/RFP) was determined. […]

[3] = tested on: IKBKAP gene with the IVS20+6T→C mutation; details: disclosed in U.S. Pat. No. 7,737,110; cited from earlier work

Row | SMILES | spliced products (mRNAs) of the endogenous IKBKAP gene by RT-PCR ([1]; 2 μM or 50 μM) | abnormal splicing inhibition activity compared with kinetin ([1]; RT-PCR) | concentration capable of inhibiting abnormal splicing ([1]; RT-PCR) | fluorescence intensity ratio (GFP/RFP) of GFP (normal splicing) to RFP (abnormal splicing) ([2]; 0.4, 2.0, 0.10, and 50.0 μM, after 24 hours and 48 hours) | degree of increase of GFP/RFP ratio compared with kinetin ([2]; after 24 hours and 48 hours) | screening outcome: GFP/RFP fluorescence intensity ratio compared to the control (solvent alone or kinetin) ([2]; after a predetermined time) | inhibition of abnormal splicing of the IKBKAP gene with the IVS20+6T→C mutation [3]
1 | Clc1nc(NCc2ccco2)c2nc[nH]c2n1 [compound 1, 2-chloro-N-(2-furanylmethyl)-7H-purin-6-amine] | reduces the abnormal splicing products and increases the normal splicing products | about the same as that of the kinetin at a concentration of 50 μM; also recorded: superior to that of kinetin | ≤ 2 µM | increased in a concentration-dependent manner; also recorded: increases the GFP/RFP ratio in a concentration-dependent manner | significantly higher than that of the kinetin; also recorded: superior to that of kinetin | selected as a candidate compound for inhibiting abnormal splicing | –
2 | c1coc(CNc2ncnc3nc[nH]c23)c1 [kinetin] | – | – | – | – | – | – | can inhibit abnormal splicing
